Results on 19 compounds are retold here after patent publication US20050282811A1, “Diazabicyclic histamine-3 receptor antagonists” (Pfizer Inc, priority 2004, published 2005).

In general, Ki refers to a dissociation constant, usually derived from enzyme kinetics or from competition with a known ligand.

Each structure is given as a SMILES string. Some results are limits rather than exact numbers.

For the assay, the target named is T1, rat histamine H3 receptors (Rattus norvegicus, UniProt Q9QYN8).
T1 construct: Frozen rat frontal brain or frozen human post-mortem frontal brain is homogenized; from tissue; host or cells: rat frontal brain membranes
T1 sequence (Q9QYN8 whole entry): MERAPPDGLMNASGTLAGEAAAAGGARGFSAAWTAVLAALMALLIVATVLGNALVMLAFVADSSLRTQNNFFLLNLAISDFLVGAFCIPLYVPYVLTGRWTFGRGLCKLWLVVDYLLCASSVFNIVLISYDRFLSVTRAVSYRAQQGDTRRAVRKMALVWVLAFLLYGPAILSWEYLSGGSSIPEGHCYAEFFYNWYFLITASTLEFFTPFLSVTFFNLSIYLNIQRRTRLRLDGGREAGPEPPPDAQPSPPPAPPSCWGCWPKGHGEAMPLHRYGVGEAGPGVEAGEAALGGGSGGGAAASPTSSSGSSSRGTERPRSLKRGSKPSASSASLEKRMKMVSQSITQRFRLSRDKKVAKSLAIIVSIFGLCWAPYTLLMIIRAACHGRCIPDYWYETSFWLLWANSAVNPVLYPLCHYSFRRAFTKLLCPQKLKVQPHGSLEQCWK
Nature of the assay: Rat H3 Binding (3H-N-methylhistamine displacement, frontal brain membranes). The note with it: frozen rat frontal brain membranes; radioligand 1 nM 3H-N-methylhistamine; 1 hour incubation. As for the experimental part: The in vitro affinity of the compounds in the present invention at the rat or human histamine H3 receptors can be determined according to the following procedure. Frozen rat frontal brain or frozen human post-mortem frontal brain is homogenized in 20 volumes of cold 50 mM Tris HCl containing 2 mM MgCl2 (pH to 7.4 at 4 degrees C.). The homogenate is then centrifuged at 45,000 G for 10 minutes. The supernatant is decanted and the membrane pellet re-suspended by Polytron in cold 50 mM Tris HCl containing 2 mM MgCl2 (pH to 7.4 at 4 degrees C.) and centrifuged again. The final pellet is re-suspended in 50 mM Tris HCl containing 2 mM MgCl2 (pH to 7.4 at 25 degrees C.) at a concentration of 12 mg/mL. Dilutions of compounds are made in 10% DMSO/50 mM Tris buffer (pH 7.4) (at 10×final concentration, so that the final DMSO concentration is 1%). Incubations are initiated by the addition of membranes (200 microliters) to 96 well V-bottom polypropylene plates containing 25 microliters of drug dilutions and 25 microliters of radioligand (1 nM final concentration ^3H-N-methylhistamine). After a 1 hour incubation, assay samples are rapidly filtered through Whatman GF/B filters and rinsed with ice-cold 50 mM Tris buffer (pH 7.4) using a Skatron cell harvester. Radioactivity is quantified using a BetaPlate scintillation counter.
Regarding `COc1ccc(CN2CCN3C[C@H](COCCCN4CCCCC4)CC[C@H]3C2)cc1` (relative stereo) [Example 6], the inhibition constant (Ki) was determined as 55 nM. For `c1ccc(CN2CCN3C[C@H](COCCCN4CCCCC4)CC[C@H]3C2)cc1` (stereo in doubt) [Example 2, trans-2-Benzyl-7-(3-piperidin-1-ylpropoxymethyl)-octahydro-pyrido[1,2-a]pyrazine] the value was 125 nM; for `c1ccc(CCN2CCN3C[C@H](COCCCN4CCCCC4)CC[C@H]3C2)cc1` (stereo in doubt) [Example 3, trans-2-Phenethyl-7-(3-piperidin-1-ylpropoxymethyl)-octahydro-pyrido[1,2-a]pyrazine], 54 nM. On to `c1ccc(CCCN2CCN3C[C@H](COCCCN4CCCCC4)CC[C@H]3C2)cc1` (stereo in doubt) [Example 4, trans-2-(3-Phenylpropyl)-7-(3-piperidin-1-ylpropoxymethyl)-octahydro-pyrido[1,2-a]pyrazine], for which the Ki is 37 nM. In turn, `CC(=O)c1ccc(CN2CCN3C[C@H](COCCCN4CCCCC4)CC[C@H]3C2)cc1` (stereo in doubt) [Example 5, trans-1-{4-[7-(3-Piperidin-1-ylpropoxymethyl)-octahydro-pyrido[1,2-a]pyrazin-2-ylmethyl]-phenyl}-ethanone] gave a Ki of 35 nM. As for `COc1cccc(CN2CCN3C[C@H](COCCCN4CCCCC4)CC[C@H]3C2)c1` (stereo in doubt) [Example 7, trans-2-(3-Methoxybenzyl)-7-(3-piperidin-1-ylpropoxymethyl)-octahydro-pyrido[1,2-a]pyrazine], the affinity corresponds to a Ki of 28 nM.

`Fc1ccc(CN2CCN3C[C@H](COCCCN4CCCCC4)CC[C@H]3C2)cc1` (stereo in doubt) [Example 8, trans-2-(4-Fluorobenzyl)-7-(3-piperidin-1-ylpropoxymethyl)-octahydro-pyrido[1,2-a]pyrazine]: the inhibition constant (Ki) is 26 nM. Compound `Fc1cccc(CN2CCN3C[C@H](COCCCN4CCCCC4)CC[C@H]3C2)c1` (stereo in doubt) [Example 9, trans-2-(3-Fluorobenzyl)-7-(3-piperidin-1-ylpropoxymethyl)-octahydro-pyrido[1,2-a]pyrazine] yielded a Ki of 9 nM. The compound `Clc1ccc(CN2CCN3C[C@H](COCCCN4CCCCC4)CC[C@H]3C2)cc1` (stereo in doubt) [Example 10, trans-2-(4-Chlorobenzyl)-7-(3-piperidin-1-ylpropoxymethyl)-octahydro-pyrido[1,2-a]pyrazine] showed an inhibitory constant (Ki) of 14 nM.

The compound `Clc1cccc(CN2CCN3C[C@H](COCCCN4CCCCC4)CC[C@H]3C2)c1` (stereo in doubt) [Example 11, trans-2-(3-Chlorobenzyl)-7-(3-piperidin-1-ylpropoxymethyl)-octahydro-pyrido[1,2-a]pyrazine] gave a Ki of 33 nM. `CC(=O)Nc1ccc(CN2CCN3C[C@H](COCCCN4CCCCC4)CC[C@H]3C2)cc1` (stereo in doubt) [Example 12, trans-N-{4-[7-(3-Piperidin-1-ylpropoxymethyl)-octahydro-pyrido[1,2-a]pyrazin-2-ylmethyl]-phenyl}-acetamide] had a Ki of 70 nM. With `c1cc(CN2CCN3C[C@H](COCCCN4CCCCC4)CC[C@H]3C2)ccn1` (stereo in doubt) [Example 13, trans-7-(3-Piperidin-1-yl-propoxymethyl)-2-pyridin-4-ylmethyl-octahydro-pyrido[1,2-a]pyrazine], the inhibition constant Ki was determined as 33 nM.

As to `c1ccc(CN2CCN3C[C@H](COCCCN4CCCCC4)CC[C@H]3C2)nc1` (stereo in doubt) [Example 15, trans-7-(3-Piperidin-1-yl-propoxymethyl)-2-pyridin-2-ylmethyl-octahydro-pyrido[1,2-a]pyrazine], the inhibitory constant (Ki) came to 90 nM. `CN1CCN2C[C@H](COCCCN3CCCCC3)CC[C@H]2C1` (stereo in doubt) [Example 16, trans-2-Methyl-7-(3-piperidin-1-ylpropoxymethyl)-octahydro-pyrido[1,2-a]pyrazine] showed an inhibitory constant (Ki) of 114 nM.

`CC(=O)c1ccc(CN2CCN3C[C@@H](COCCCN4CCCCC4)CC[C@H]3C2)cc1` (stereo in doubt) [Example 17, cis-1-{4-[7-(3-Piperidin-1-ylpropoxymethyl)-octahydro-pyrido[1,2-a]pyrazin-2-ylmethyl]-phenyl}-ethanone] returned an inhibition constant Ki of 60 nM. `Clc1ccc(CN2CCN3C[C@@H](COCCCN4CCCCC4)CC[C@H]3C2)cc1` (stereo in doubt) [Example 18, cis-2-(4-Chlorobenzyl)-7-(3-piperidin-1-ylpropoxymethyl)-octahydro-pyrido[1,2-a]pyrazine] registered a Ki of more than 69 nM. As for `CS(=O)(=O)c1ccc(CN2CCN3C[C@@H](COCCCN4CCCCC4)CC[C@H]3C2)cc1` (stereo in doubt) [Example 21, cis-2-(4-Methanesulfonylbenzyl)-7-(3-piperidin-1-ylpropoxymethyl)-octahydro-pyrido[1,2-a]pyrazine], the affinity corresponds to a Ki of 26 nM. For `C1CCN(CCCOC[C@@H]2CC[C@H]3CNCCN3C2)CC1` (stereo in doubt) [Intermediate 3, trans-7-(3-Piperidin-1-ylpropoxymethyl)-octahydro-pyrido[1,2-a]pyrazine] the value was 155 nM. With `CS(=O)(=O)c1ccc(CN2CCN3C[C@H](COCCCN4CCCCC4)CC[C@H]3C2)cc1` [Example 1, trans-(7R, 9aS)-2-(4-Methanesulfonylbenzyl)-7-(3-piperidin-1-ylpropoxymethyl)-octa-hydro-pyrido[1,2-a]pyrazine], the inhibitory constant (Ki) is 42 nM.
